The text below walks through data of article PMC7281072 (Cancers, 2020).

Each structure is given as a SMILES string. Like-named read-outs stand apart in the source and are kept apart here.

For orientation: GI50 means the concentration that inhibits growth by half. Broadly, the LD50 is the dose expected to kill half of the subjects tested.

The subject of one data set is AKT1,2 phosphorylation. Nature of the data set: AKT phosphorylation ELISA, UWB1.289+BRCA1 cells. The data set is classed as cell-based, human. The arrangement: Vmax ± SE, pAKT 1/2 inhibition: unit not given beside the values. To be noted: for Vmax ± SE, pAKT 1/2 inhibition: Michaelis Menten model; for IC50: Homo sapiens, read-out: IC50, pAKT 1/2 inhibition. On the technique in general: In an ELISA, binding on a coated surface is turned into a signal by an enzyme label.

Data set [1] relates to OVCAR-3 cancer cell line.
Data set [2] concerns OVCAR-3 cancer cell line. Nature of the data set: cells. To be noted: Homo sapiens, OVCAR-3, 48 h; for GI50: read-out: GI50 (50% Growth Inhibition); for IC50: read-out: IC50 (cytotoxic effect).
The next data set is described as follows: in vivo. Conditions: both, CB17 SCID, mouse, ip.

Consider `C[C@]12CC[C@H]3[C@@H](CCC4=CC(=O)NCC[C@@]43C)[C@@H]1CC[C@@H]2OC(=O)CCOc1ccc(N(CCCl)CCCl)cc1` [ENGA-L06E, 5a,7a-dimethyl-2-oxo-2,3,4,5,5a,5b,6,7,7a,8,9,10,10a,10b,11,12-hexa decahydrocyclopenta [5, 6] naphtho [1,2-d] azepin-8-yl 3-(4-(bis(2-chloroethyl)amino)phenoxy) propanoate], for which the “Vmax ± SE, pAKT 1/2 inhibition” value in the data set on AKT1,2 phosphorylation (15 min) was 59.78 ± 4.67; in the data set on AKT1,2 phosphorylation (30 min), 57.10 ± 3.38; in the data set with AKT1,2 phosphorylation (60 min), 63.12 ± 4.19. Moreover, the IC50 in the data set with AKT1,2 phosphorylation (0.25 h, 15 min) is 44.4 µM; with AKT1,2 phosphorylation (0.5 h, 30 min), 40.3 µM; with AKT1,2 phosphorylation (1 h, 60 min), 25.8 µM; in the data set on OVCAR-3 cancer cell line [2], 43 ± 2.9 µM. In the data set on OVCAR-3 cancer cell line [1], the “TGI (Total Growth Inhibition)” value was 32 ± 1.8 μΜ. In the data set on OVCAR-3 cancer cell line [2], the GI50 was 22 ± 0.9 µM.

On to `C[C@]12CC[C@@H]3c4ccc(OC(=O)CCOc5ccc(N(CCCl)CCCl)cc5)cc4CC[C@H]3[C@@H]1CCC(=O)N2` [ENGA-L08E, 12a-methyl-2-oxo-1,2,3,4,4a,4b,5,6,10b,11,12,12a-dodecahydronaphtho[2,1-f]quinolin-8-yl 3-(4-(bis (2-chloroethyl)amino)phenoxy) propanoate], for which the “Vmax ± SE, pAKT 1/2 inhibition” value in the data set on AKT1,2 phosphorylation (15 min) stood at 57.59 ± 1.42; in the data set with AKT1,2 phosphorylation (30 min), 60.90 ± 3.82; in the data set with AKT1,2 phosphorylation (60 min), 63.84 ± 5.49. In addition, the IC50 turned out to be 36.2 µM in the data set on AKT1,2 phosphorylation (0.25 h, 15 min); 26.6 µM with AKT1,2 phosphorylation (0.5 h, 30 min); 19.4 µM with AKT1,2 phosphorylation (1 h, 60 min); 56 ± 3.2 µM in the data set on OVCAR-3 cancer cell line [2]. Besides, the “TGI (Total Growth Inhibition)” value in the data set on OVCAR-3 cancer cell line [1] turned out to be 40 ± 2.7 μΜ. Further, the GI50 with OVCAR-3 cancer cell line [2] worked out at 30 ± 2.1 µM. In “in vivo”, this compound returned a median lethal dose (LD50) of 95 mg/kg.
